In ChEMBL document CHEMBL5143542, “Synthesis and biological studies of "Polycerasoidol" and "trans-δ-Tocotrienolic acid" derivatives as PPARα and/or PPARγ agonists” (Bioorg Med Chem, 2022):
Calls of active or inactive are those of the source. The rule behind the calls is not given here.

How the values were obtained:
Type in all cases: cell-based
[1] = molecular target: T1, Peroxisome proliferator-activated receptor alpha (Homo sapiens) (UniProt Q07869); test: Agonist activity at Gal4-fused human PPARalpha expressed in COS7 cells assessed as receptor transactivation at 10 uM measured after 24 hrs by luciferase/beta-galactosidase reporter gene assay relative to WY-14643; settings: filed as agonist
T1 sequence (whole entry): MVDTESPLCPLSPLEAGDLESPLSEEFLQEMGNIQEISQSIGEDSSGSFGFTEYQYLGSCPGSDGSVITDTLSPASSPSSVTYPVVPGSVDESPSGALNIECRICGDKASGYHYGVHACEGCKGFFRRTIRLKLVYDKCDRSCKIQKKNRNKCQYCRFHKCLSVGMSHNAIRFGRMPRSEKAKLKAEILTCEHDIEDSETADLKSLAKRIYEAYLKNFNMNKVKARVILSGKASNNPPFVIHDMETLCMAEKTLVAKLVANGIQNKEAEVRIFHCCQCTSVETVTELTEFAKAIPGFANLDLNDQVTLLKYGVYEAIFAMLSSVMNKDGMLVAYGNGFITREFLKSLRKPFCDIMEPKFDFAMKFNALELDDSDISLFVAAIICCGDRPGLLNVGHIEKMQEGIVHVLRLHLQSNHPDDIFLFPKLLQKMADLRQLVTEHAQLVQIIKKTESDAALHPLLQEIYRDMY

[2] = molecular target: T2, Peroxisome proliferator-activated receptor gamma (Homo sapiens, UniProt P37231); test: (§1) Agonist activity at Gal4-fused human PPARgamma expressed in COS7 cells assessed as receptor transactivation at 10 uM measured after 24 hrs by luciferase/beta-galactosidase reporter gene assay relative to rosiglitazone; settings: cos7, 24 h, 10 µM
T2 sequence (P37231 whole entry): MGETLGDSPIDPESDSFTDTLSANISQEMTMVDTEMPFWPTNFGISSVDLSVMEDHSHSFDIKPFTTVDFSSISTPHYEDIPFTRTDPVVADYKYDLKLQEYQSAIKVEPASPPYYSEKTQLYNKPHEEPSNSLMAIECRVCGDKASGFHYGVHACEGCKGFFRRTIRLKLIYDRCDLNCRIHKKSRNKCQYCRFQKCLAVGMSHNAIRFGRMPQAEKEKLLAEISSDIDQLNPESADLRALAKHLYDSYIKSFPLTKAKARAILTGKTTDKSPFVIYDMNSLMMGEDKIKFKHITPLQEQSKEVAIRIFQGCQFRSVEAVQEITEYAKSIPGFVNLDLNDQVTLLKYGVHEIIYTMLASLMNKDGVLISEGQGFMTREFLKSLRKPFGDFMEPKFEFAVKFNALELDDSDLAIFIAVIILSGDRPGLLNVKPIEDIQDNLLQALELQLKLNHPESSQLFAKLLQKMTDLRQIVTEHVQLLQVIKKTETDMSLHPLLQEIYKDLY

PPARgamma = molecular target: T3, PPARgamma (Homo sapiens, UniProt P37231); test: as §1; settings: COS7 cells expressing Gal4-fused human PPARgamma, read-out: max activation
T3 sequence (P37231 whole entry): T2 sequence (P37231 whole entry)

[3] = molecular target: T4, Peroxisome proliferator-activated receptor gamma (Homo sapiens) (UniProt P37231); test: Partial agonist activity at Gal4-fused human PPARgamma expressed in COS7 cells assessed as receptor transactivation at 10 uM measured after 24 hrs by luciferase/beta-galactosidase reporter gene assay; settings: filed as partial agonist
T4 sequence (whole entry): T2 sequence (P37231 whole entry)

Row | Activity [1] | max activation [1] | Activity [3] | Compound | Activity [2] | Emax at 24 h, 10 µM (PPARgamma)
1 | Active |  |  | CCCOc1ccc2c(c1)CCC(C)(CC/C=C(\C)CC/C=C(\C)CC/C=C(\C)C(=O)Nc1ccccc1)O2 (stereo unspecified) | Active | 
2 |  | 123% |  | CCOC(=O)CC/C(C)=C/CCC1(C)CCc2cc(OCc3ccccc3)ccc2O1 (stereo unspecified) |  | 38%
3 | Active |  |  | CCCOc1ccc2c(c1)CCC(C)(CC/C=C(\C)CCC(=O)OCC)O2 (stereo unspecified) | Active | 
4 | Active |  |  | CCCOc1ccc2c(c1)CCC(C)(CC/C=C(\C)CCC(=O)Nc1ccccc1)O2 (stereo unspecified) | Active | 
5 | Active |  |  | CCCOc1ccc2c(c1)CCC(C)(CC/C=C(\C)CC/C=C(\C)CC/C=C(\C)C(=O)OCC)O2 (stereo unspecified) | Active | 

The remaining lines, values behind:

Row | Compound | Activity [1] | max activation [1] | Activity [3] | Activity [2] | Emax at 24 h, 10 µM (PPARgamma)
6 | C/C(=C\CCC1(C)CCc2cc(OCc3ccccc3)ccc2O1)CC/C=C(\C)C(=O)Nc1ccccc1 (stereo unspecified) |  |  | Active |  | 
7 | C/C(=C\CC[C@]1(C)CCc2cc(O)cc(C)c2O1)CC/C=C(\C)C(=O)O |  | 107% |  |  | 95%
8 | CCCOc1ccc2c(c1)CCC(C)(CC/C=C(\C)CC/C=C(\C)C(=O)OCC)O2 (stereo unspecified) |  |  |  | Active | 
9 | C/C(=C\CCC1(C)CCc2cc(OCc3ccccc3)ccc2O1)CCC(=O)Nc1ccccc1 (stereo unspecified) | Active |  |  | Active | 
